{"source": "paper PMC11237774", "about": "“On-target, dual aminopeptidase inhibition provides cross-species antimalarial activity” (mBio, 2024)", "target": "Pb-M17 (Plasmodium berghei, UniProt A0A509APA2)", "sequence (A0A509APA2 entry or part of it)": "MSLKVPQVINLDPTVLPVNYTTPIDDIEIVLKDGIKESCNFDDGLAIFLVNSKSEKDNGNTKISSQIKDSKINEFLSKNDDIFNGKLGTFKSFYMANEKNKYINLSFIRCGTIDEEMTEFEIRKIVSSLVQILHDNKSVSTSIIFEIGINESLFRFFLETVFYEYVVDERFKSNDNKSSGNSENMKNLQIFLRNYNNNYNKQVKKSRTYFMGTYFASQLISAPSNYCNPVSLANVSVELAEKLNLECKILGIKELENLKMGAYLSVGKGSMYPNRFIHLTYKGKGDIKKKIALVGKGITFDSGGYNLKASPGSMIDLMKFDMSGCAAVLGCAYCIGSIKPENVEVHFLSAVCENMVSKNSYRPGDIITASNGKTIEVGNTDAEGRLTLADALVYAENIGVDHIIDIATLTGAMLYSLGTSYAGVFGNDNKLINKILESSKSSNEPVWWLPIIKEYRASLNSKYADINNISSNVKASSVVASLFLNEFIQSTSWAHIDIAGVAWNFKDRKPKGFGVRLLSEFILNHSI", "test": "Recombinant aminopeptidase fluorescence assay (H-Leu-NHMec)", "type": "biochemical", "conditions": "Pb M17, Morrison equation; read-out: Ki^(app) ± SEM", "method": "Inhibition of aminopeptidase activity assays were performed against nine aminopeptidases: the M1 alanyl and M17 leucyl aminopeptidases from P. falciparum (PfA-M1; PfA-M17), P. vivax (Pv-M1; Pv-M17), and P. berghei (Pb-M1; Pb-M17), and three human M1 homologs: LTA4H (OriGene TP307617), ERAP1 (OriGene TP314469), and ERAP2 (Creative BioMart ERAP2-304H). The Plasmodium enzymes were produced recombinantly as described previously ([16], [17]), and the human recombinant enzymes were purchased from commercial suppliers as indicated.\nThe concentration of H-Leu-NHMec in the assay was held constant for each enzyme and ranged from 10 to 100 µM, depending on the enzyme. Reactions were measured at 37°C in white 384-well plates in a total volume of 25 or 50 µL using a spectrofluorimeter (BMG FLUOstar) with excitation at 355 nm and emission at 460 nm. The fluorescence signal was continuously monitored until a final steady-state velocity, v, was obtained. Inhibition constants were calculated from biological triplicates made from three different protein preparations.\nSubstrate concentrations were selected to allow sensitive detection of enzyme activity while not exceeding the Km for each enzyme. A compound concentration range was selected to obtain a complete inhibition curve (0%–100 %) in biological triplicate. Where possible, the Ki values were calculated by plotting the initial rates versus inhibitor concentration and fitting to the Morrison equation for tight-binding inhibitors in GraphPad Prism (V.8.4.1; non-linear regression method).", "data": [{"smiles": "CC(C)(C)CC(=O)NC(C(=O)NO)c1ccc(-c2cc(F)c(F)c(F)c2)cc1", "note": "(stereo not shown) [MMV1557817, N-(2-(hydroxyamino)−2-oxo-1-(3′,4′,5′-trifluoro-[1,1′-biphenyl]-4-yl)ethyl)-3,3-dimethylbutanamide]", "values": [{"measurement": "Ki", "value": "0.13 ± 0.007", "unit": "µM"}]}]}
